# According to US20230109758A1 (priority 2018, published 2023):
# Key:
# [1] = tested on: C. beijerinckii DSM 6423 ΔcatB; assay type: cell-based
# C. beijerinckii DSM 6423 = assay type: cell-based
smiles,measurement,setting,value
CS(=O)(=O)c1ccc([C@@H](O)[C@@H](CO)NC(=O)C(Cl)Cl)cc1 [thiamphenicol],Growth on thiamphenicol-supplemented medium,[1],only the initial C. beijerinckii DSM 6423 strain is able to grow
same,Growth on thiamphenicol-supplemented medium,C. beijerinckii DSM 6423,able to grow
